Experimental data reported in Sander's compilation of Henry's law constants (doi:10.1213/00000539-199904000-00035).

test: Henry solubility constant Hcp at 310 K (mol/(m3 Pa)); conditions: reference: Eger et al. (1999)

Henry solubility constant Hcp at 310 K	SMILES
0.1	OC(C(F)(F)F)C(F)(F)F [1,1,1,3,3,3-hexafluoro-2-propanol]
0.00023	OCC(F)(F)C(F)(F)C(F)(F)C(F)(F)C(F)(F)C(F)(F)C(F)(F)F [2,2,3,3,4,4,5,5,6,6,7,7,8,8,8-pentadecafluoro-1-octanol]
0.13	CC(O)C(F)(F)F (configuration not stated) [1,1,1-trifluoro-2-propanol]
0.069	OCC(F)(F)C(F)(F)F [2,2,3,3,3-pentafluoro-1-propanol]
0.75	OCC(F)(F)C(F)F [2,2,3,3-tetrafluoro-1-propanol]
0.43	OCC(F)(F)F [2,2,2-trifluoroethanol]
0.064	OCC(F)(F)C(F)(F)C(F)(F)C(F)(F)C(F)(F)C(F)F [2,2,3,3,4,4,5,5,6,6,7,7-dodecafluoro-1-heptanol]
1	CCO [ethanol]
0.0017	OCC(F)(F)C(F)(F)C(F)(F)C(F)(F)C(F)(F)F [2,2,3,3,4,4,5,5,6,6,6-undecafluoro-1-hexanol]
0.00094	OCCC(F)(F)C(F)(F)C(F)(F)C(F)(F)C(F)(F)C(F)(F)F [1H,1H,2H,2H-perfluoro-1-octanol]
0.009	CC(O)C(F)(F)C(F)(F)C(F)(F)F (configuration not stated) [3,3,4,4,5,5,5-heptafluoro-2-pentanol]
0.0006	OCC(F)(F)C(F)(F)C(F)(F)C(F)(F)C(F)(F)C(F)(F)F [2,2,3,3,4,4,5,5,6,6,7,7,7-tridecafluoro-1-heptanol]
0.32	OCC(F)(F)C(F)C(F)(F)F (configuration not stated) [2,2,3,4,4,4-hexafluoro-1-butanol]
0.27	CCCCCCCCO [1-octanol]
0.35	CCCCCCO [1-hexanol]
0.25	OCC(F)(F)C(F)(F)C(F)(F)C(F)F [2,2,3,3,4,4,5,5-octafluoro-1-pentanol]

SMILES	Henry solubility constant Hcp at 310 K
CC(O)(C(F)(F)F)C(F)(F)F [1,1,1,3,3,3-hexafluoro-2-methyl-2-propanol]	0.018
